Measurements from US20110257208A1, “COMPOUNDS USEFUL AS FAAH MODULATORS AND USES THEREOF” (priority 2008, published 2011).

target: T1, hFAAH (Homo sapiens, UniProt O00519); assay: Fluorimetric assay with hFAAH microsomes (enzymatic, fluorescence based); format: biochemical; settings: compound at 1 uM, AA-AMC substrate
T1 construct: expressed in transfected cells; host or cells: HEK293-TRex (Invitrogen) stably transfected with hFAAH in the pcDNA5-Tet-off vector, or T84 human colon epithelial cells (endogenous hFAAH); used as a microsomal preparation
T1 sequence (O00519 1-579): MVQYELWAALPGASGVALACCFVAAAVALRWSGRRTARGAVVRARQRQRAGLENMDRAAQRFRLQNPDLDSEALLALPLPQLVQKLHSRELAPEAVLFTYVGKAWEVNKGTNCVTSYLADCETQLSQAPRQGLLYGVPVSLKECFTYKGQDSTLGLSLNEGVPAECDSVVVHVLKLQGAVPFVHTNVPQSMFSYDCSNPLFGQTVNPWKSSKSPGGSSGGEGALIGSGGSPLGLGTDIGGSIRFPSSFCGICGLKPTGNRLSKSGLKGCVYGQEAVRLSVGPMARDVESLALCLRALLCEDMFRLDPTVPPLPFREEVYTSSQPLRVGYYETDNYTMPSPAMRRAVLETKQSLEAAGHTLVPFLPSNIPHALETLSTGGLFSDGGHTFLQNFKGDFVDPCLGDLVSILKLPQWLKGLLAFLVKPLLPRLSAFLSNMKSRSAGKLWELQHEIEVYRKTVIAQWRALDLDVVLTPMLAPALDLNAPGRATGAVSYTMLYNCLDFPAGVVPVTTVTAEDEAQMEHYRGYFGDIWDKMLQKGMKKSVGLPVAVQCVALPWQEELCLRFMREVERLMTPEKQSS
Method: Human cell line T84 (human colon epithelial cells), which expresses endogenous hFAAH, or HEK293-TRex cells (Invitrogen) stably transfected with hFAAH in the pcDNA5-Tet-off vector are cultured in medium containing DMEM, 10% FBS penicillin/streptomycin, glutamax, 200 μg/ml hygromycin and 0.5 μg/ml blasticidin. Cell collection is done 24 h after induction with doxycycline by first washing the cells with cold PBS and then incubating them with Versene before centrifugation. Cell pellets are then stored at −80° C. until needed. For homogenization, the cell pellets are thawed on ice […] and resuspended in homogenization buffer (50 mM HEPES (pH 7.4), 1 mM EDTA, 1 μM Pepstatin A, 100 μM Leupeptin, 0.1 mg/mL aprotinin). Cell suspensions are then homogenized on ice using the Polytron 1200 C at setting 6 for three 30-second intervals with 30-second rests. The suspension is centrifuged at 1000 g for 10 minutes at 4° C. and the supernatant is collected and further centrifuged at 24000 rpm for 30 minutes at 4° C. using an ultracentrifuge. Pellets are resuspended by adding in cold microsomal buffer (50 mM HEPES (pH 7.4) and 1 mM EDTA) and sheared through a 23-gauge needle five times, keeping the suspension on ice. Protein concentrations are determined using the BCA assay and aliquoted preparations are stored at −80° C. until needed.
Compound potency against hFAAH is determined using an enzymatic assay with a fluorescence readout. Briefly, experiments were carried out in a 96-well plate format (Corning Costar, # 3370) with a total well volume of 160 μL with components added in the following order: assay buffer (50 mM HEPES (pH 7.4), 1 mM EDTA, 1.4 mg/mL BSA), compound solutions (7 different concentrations per compound in duplicate), microsomal enzyme preparation (10 μg per well) and substrate [AA-AMC (arachadonyl 7-amino 4-methyl coumarin amide), 2 μM]. After a brief shaking, a kinetic read of the plate is obtained using a Tecan Safire II in kinetic mode for 275 cycles with excitation and emission wavelengths of 355 and 460 nm, respectively. Raw data is then processed and analyzed using Assay Explorer and GraphPad Prism.
The following compounds have been or can be prepared according to the methods of the invention. An enzymatic (fluorescence based) assay is performed as described above. In Table 1, activity of each compound is expressed as follows: • ++++ % Inhibition >75% • +++ % Inhibition >50% • ++ % Inhibition >25% • + % Inhibition <25%

inhibition at 1 µM | SMILES
< 25% | O=C(CN1CCCCC1)N1Cc2ncnc(Nc3cnc4ccccc4c3)c2C1 [Compound 53, 2-Piperidin-1-yl-1-[4-(quinolin-3-ylamino)-5,7-dihydro-pyrrolo[3,4-d]pyrimidin-6-yl]-ethanone]
< 25% | Cc1nc(C)c(CNC(=O)N2Cc3ncnc(Nc4cnc5ccccc5c4)c3C2)s1 [Compound 48, 4-(Quinolin-3-ylamino)-5,7-dihydro-pyrrolo[3,4-d]pyrimidine-6-carboxylic acid (2,4-dimethyl-thiazol-5-ylmethyl)-amide]
> 75% | Cc1ccccc1S(=O)(=O)N1Cc2ncnc(Nc3cnc4ccccc4c3)c2C1 [Compound 59, Quinolin-3-yl-[6-(toluene-2-sulfonyl)-6,7-dihydro-5H-pyrrolo[3,4-d]pyrimidin-4-yl]-amine]
> 25% | O=S(=O)(c1ccc(-c2cnco2)s1)N1Cc2ncnc(Nc3cnc4ccccc4c3)c2C1 [Compound 55, [6-(5-Oxazol-5-yl-thiophene-2-sulfonyl)-6,7-dihydro-5H-pyrrolo[3,4-d]pyrimidin-4-yl]-quinolin-3-yl-amine]
> 25% | CC(C1CCC1)N1Cc2ncnc(Nc3cnc4ccccc4c3)c2C1 (centres unmarked) [Compound 36, [6-(1-Cyclobutyl-ethyl)-6,7-dihydro-5H-pyrrolo[3,4-d]pyrimidin-4-yl]-quinolin-3-yl-amine]
> 75% | Clc1ccccc1CN1Cc2ncnc(Nc3cnc4ccccc4c3)c2C1 [Compound 84, [6-(2-Chloro-benzyl)-6,7-dihydro-5H-pyrrolo[3,4-d]pyrimidin-4-yl]-quinolin-3-yl-amine]
< 25% | CC(C)N1Cc2ncnc(Nc3cnc4ccccc4c3)c2C1 [Compound 34, (6-Isopropyl-6,7-dihydro-5H-pyrrolo[3,4-d]pyrimidin-4-yl)-quinolin-3-yl-amine]
> 75% | CCC(CC)CN1Cc2ncnc(Nc3cnc4ccccc4c3)c2C1 [Compound 14, [6-(2-Ethyl-butyl)-6,7-dihydro-5H-pyrrolo[3,4-d]pyrimidin-4-yl]-quinolin-3-yl-amine]
< 25% | O=C(NC1CCCCC1)N1Cc2ncnc(Nc3cnc4ccccc4c3)c2C1 [Compound 47, 4-(Quinolin-3-ylamino)-5,7-dihydro-pyrrolo[3,4-d]pyrimidine-6-carboxylic acid cyclohexylamide]
> 25% | O=S(=O)(c1ccc(F)cc1F)N1Cc2ncnc(Nc3cnc4ccccc4c3)c2C1 [Compound 58, [6-(2,4-Difluoro-benzenesulfonyl)-6,7-dihydro-5H-pyrrolo[3,4-d]pyrimidin-4-yl]-quinolin-3-yl-amine]
> 25% | Cn1nccc1CN1Cc2ncnc(Nc3cnc4ccccc4c3)c2C1 [Compound 24, [6-(2-Methyl-2H-pyrazol-3-ylmethyl)-6,7-dihydro-5H-pyrrolo[3,4-d]pyrimidin-4-yl]-quinolin-3-yl-amine]
< 25% | O=C(CN1CCCC1)N1Cc2ncnc(Nc3cnc4ccccc4c3)c2C1 [Compound 54, 2-Pyrrolidin-1-yl-1-[4-(quinolin-3-ylamino)-5,7-dihydro-pyrrolo[3,4-d]pyrimidin-6-yl]-ethanone]
> 75% | Cc1nc(C)c(CN2Cc3ncnc(Nc4cnc5ccccc5c4)c3C2)s1 [Compound 28, [6-(2,4-Dimethyl-thiazol-5-ylmethyl)-6,7-dihydro-5H-pyrrolo[3,4-d]pyrimidin-4-yl]-quinolin-3-yl-amine]
< 25% | CC(CC(C)(C)C)N1Cc2ncnc(Nc3cnc4ccccc4c3)c2C1 (centres unmarked) [Compound 39, Quinolin-3-yl-[6-(1,3,3-trimethyl-butyl)-6,7-dihydro-5H-pyrrolo[3,4-d]pyrimidin-4-yl]-amine]
> 75% | c1ccc2ncc(Nc3ncnc4c3CN(CC3CCCC3)C4)cc2c1 [Compound 12, (6-Cyclopentylmethyl-6,7-dihydro-5H-pyrrolo[3,4-d]pyrimidin-4-yl)-quinolin-3-yl-amine]
> 25% | c1ccc2ncc(Nc3ncnc4c3CN(Cc3cncs3)C4)cc2c1 [Compound 81, Quinolin-3-yl-(6-thiazol-5-ylmethyl-6,7-dihydro-5H-pyrrolo[3,4-d]pyrimidin-4-yl)-amine]
> 25% | O=S(=O)(c1ccccc1F)N1Cc2ncnc(Nc3cnc4ccccc4c3)c2C1 [Compound 71, [6-(2-Fluoro-benzenesulfonyl)-6,7-dihydro-5H-pyrrolo[3,4-d]pyrimidin-4-yl]-quinolin-3-yl-amine]
< 25% | FC(F)(F)CN1Cc2ncnc(Nc3cnc4ccccc4c3)c2C1 [Compound 30, Quinolin-3-yl-[6-(2,2,2-trifluoro-ethyl)-6,7-dihydro-5H-pyrrolo[3,4-d]pyrimidin-4-yl]-amine]
> 75% | c1ccc2ncc(Nc3ncnc4c3CN(Cc3cccc5cc[nH]c35)C4)cc2c1 [Compound 110, [6-(1H-Indol-7-ylmethyl)-6,7-dihydro-5H-pyrrolo[3,4-d]pyrimidin-4-yl]-quinolin-3-yl-amine]
> 75% | c1ccc2ncc(Nc3ncnc4c3CN(CC3CCCCC3)C4)cc2c1 [Compound 2, (6-Cyclohexylmethyl-6,7-dihydro-5H-pyrrolo[3,4-d]pyrimidin-4-yl)-quinolin-3-yl-amine]
> 50% | CC(C1CCCC1)N1Cc2ncnc(Nc3cnc4ccccc4c3)c2C1 (centres unmarked) [Compound 37, [6-(1-Cyclopentyl-ethyl)-6,7-dihydro-5H-pyrrolo[3,4-d]pyrimidin-4-yl]-quinolin-3-yl-amine]
> 75% | FC(F)(F)Oc1cccc(CN2Cc3ncnc(Nc4cnc5ccccc5c4)c3C2)c1 [Compound 104, Quinolin-3-yl-[6-(3-trifluoromethoxy-benzyl)-6,7-dihydro-5H-pyrrolo[3,4-d]pyrimidin-4-yl]-amine]
> 75% | Cc1ccccc1CN1Cc2ncnc(Nc3cnc4ccccc4c3)c2C1 [Compound 92, [6-(2-Methyl-benzyl)-6,7-dihydro-5H-pyrrolo[3,4-d]pyrimidin-4-yl]-quinolin-3-yl-amine]
> 25% | CC1(CN2Cc3ncnc(Nc4cnc5ccccc5c4)c3C2)COC1 [Compound 29, [6-(3-Methyl-oxetan-3-ylmethyl)-6,7-dihydro-5H-pyrrolo[3,4-d]pyrimidin-4-yl]-quinolin-3-yl-amine]
> 50% | c1ccc2ncc(Nc3ncnc4c3CN(CC3CCC3)C4)cc2c1 [Compound 21, (6-Cyclobutylmethyl-6,7-dihydro-5H-pyrrolo[3,4-d]pyrimidin-4-yl)-quinolin-3-yl-amine]
> 75% | c1ccc2ncc(Nc3ncnc4c3CN(CC3CCOCC3)C4)cc2c1 [Compound 33, Quinolin-3-yl-[6-(tetrahydro-pyran-4-ylmethyl)-6,7-dihydro-5H-pyrrolo[3,4-d]pyrimidin-4-yl]-amine]
> 50% | c1ccc2ncc(Nc3ncnc4c3CN(C3CCCC3)C4)cc2c1 [Compound 41, (6-Cyclopentyl-6,7-dihydro-5H-pyrrolo[3,4-d]pyrimidin-4-yl)-quinolin-3-yl-amine]
> 50% | O=S(=O)(C1CCCCC1)N1Cc2ncnc(Nc3cnc4ccccc4c3)c2C1 [Compound 64, (6-Cyclohexanesulfonyl-6,7-dihydro-5H-pyrrolo[3,4-d]pyrimidin-4-yl)-quinolin-3-yl-amine]
> 75% | COc1cccc(CN2Cc3ncnc(Nc4cnc5ccccc5c4)c3C2)c1 [Compound 106, [6-(3-Methoxy-benzyl)-6,7-dihydro-5H-pyrrolo[3,4-d]pyrimidin-4-yl]-quinolin-3-yl-amine]
